From patent publication US11213514B2, “Alpha-1-adrenergic receptor agonist therapy” (The Regents of the University of California, priority 2016, dated 2022) come the findings set out here.

The assay concerns ERK. Nature of the assay: ERK activation in neonatal rat ventricular myocytes (pERK/ERK Western blot). Format: cell-based. To be noted: NRVMs, norepinephrine 1 μM in the presence of propranolol 1 μM. The source says:
FIGS. 4A-4F. […] The reaction was stopped immediately and lysates were blotted for total and phospho-ERK (pERK). FIG. 4A. Representative Western blot. FIG. 4B. […] FIG. 4C. Summary of pERK/ERK for experiments using 5 different NRVM isolations. The average pERK/ERK ratio for each experiment was derived from at least 2 individual wells and normalized to the pERK/ERK ratio for vehicle treated NRVMs. FIG. 4D and FIG. 4E. […] Heart lysates were blotted for pERK and ERK. Results were compared using one way ANOVA with Tukey post-test. FIG. 4F.
Dabuzalgron protects neonatal rat ventricular myocytes from cell death due to doxorubicin. […] (FIG. 4C).
Female Sprague-Dawley rats were from Charles River. NRVMs were isolated as previously described.7 Briefly, hearts from 1-2 day old rat pups were minced, digested serially in collagenase (Worthington)-containing solution, filtered, then pre-plated to exclude non-myocyotes. NRVMs were then plated on laminin-coated dishes in DMEM with 5% fetal bovine serum (Sigma F2442) for 24 hours. Experiments were carried out after 36-96 hours of serum starvation in the presence of insulin, transferrin, and BrdU. […]
All results are presented as mean±SEM. […] EC50 for ERK activation was calculated using sigmoidal dose-response analysis (Prism).
A general note: Immunoblotting shows a protein as a band on a membrane.

For the compound `NC[C@H](O)c1ccc(O)c(O)c1` [norepinephrine], the “increase of pERK/ERK ratio” value is “roughly 1.5 fold”.
